# Measurements: PubChem BioAssay AID624491 (Broad Institute, 2012)
# Tested on: D54 ERlucT glycosylation luciferase reporter, luminescence, 24 h
# Assay: blockers of NLG process in reporter cells – D54 ERlucT cells, luminescence, cherry-picks, dose response (AID 624491);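 also: signal gain reflects blocked N-linked glycosylation of a luciferase reporter; actives raise luciferase signal so AC26 marks activators of the reporter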
row,Structure (SMILES),AC26
1,COc1ccc(OC)c(Nc2ncnc3c2cnn3-c2cccc(C)c2)c1,3240 nM
2,C=CCOc1ccc2nc(NC(=O)OC)[nH]c2c1,414 nM
3,COc1ccc(S(=O)(=O)Nc2cc3c(cc2C(C)=O)OCO3)cc1,5560 nM
4,COc1ccc(CNC(=O)c2cccc3c(-c4cccnc4)coc23)cc1OC,2690 nM
5,O=C(NCc1cccs1)C1CC(c2ccc(Cl)c(Cl)c2)=NO1 (centres undefined),5400 nM
6,Cc1ccc(/C=N/NC(=O)C2COc3ccccc3O2)s1 (centres undefined),307 nM
7,O=C(N/N=C/c1cccs1)c1cc(-c2cccc3ccccc23)n[nH]1,4700 nM
8,COc1cc(-c2noc(C)c2-c2ccc(N(C)C)nc2)cc(OC)c1OC,112 nM
9,CC1(C)Cc2nc3sc4c(SCC(=O)NCc5ccccc5)ncnc4c3cc2CO1,160 nM
10,O=C1CCCN1c1ccc(S(=O)(=O)Nc2ccc3c(c2)OCCO3)cc1,9890 nM
11,O=C1NC(=O)N(Cc2ccco2)C(=O)/C1=C/C=C/c1ccco1,953 nM
12,CN(Cc1ccccc1)c1nc2c(c(=O)n(C)c(=O)n2C)n1CCCc1ccccc1,981 nM
13,Cc1ccccc1OCC(O)CN1CCN(CCN2C(=O)c3cccc4cccc(c34)C2=O)CC1 (centres undefined),13500 nM
14,Cc1ccnc(NC(=O)C(Cc2ccccc2)NC(=O)c2ccccc2)c1 (centres undefined),564 nM
15,OC1CCCN(Cc2c3ccccc3cc3ccccc23)C1 (centres undefined),8750 nM
16,O=C(c1cccc(Oc2ccccc2)c1)N1CCN(c2ccccn2)CC1,2190 nM
17,Cc1cc(C)c(S(=O)(=O)N(C)CC(=O)N2CCCC2)c(C)c1,2910 nM
18,Cn1cnc([N+](=O)[O-])c1Sc1nc2ccccc2[nH]1,797 nM
19,COc1cccc(OCC(O)CN2CCN(CCN3C(=O)c4cccc5cccc(c45)C3=O)CC2)c1 (centres undefined),4250 nM
20,CCC(C)Nc1nc2ccccc2n2c(C)nnc12 (centres undefined),1500 nM
21,Cc1cccc(C(=O)Nc2cc(S(=O)(=O)N3CCOCC3)ccc2N2CCCC2)c1,173 nM
22,O=C(NCCc1ccccc1)c1coc(=O)c(Br)c1,1530 nM

row,Structure (SMILES),AC26
1,CCc1nn2c(N(C)CCO)cc(C)nc2c1-c1ccc(F)cc1,12800 nM
2,COc1cc2c(C(=O)N3CCN(c4cccc(Cl)c4)CC3)cn(C)c(=O)c2cc1OC,3400 nM
3,COCCOC(=O)c1[nH]c2c(c1C)C(=O)CC(c1ccco1)C2 (centres undefined),3540 nM
4,COc1ccc(S(=O)(=O)NCc2ccccn2)cc1NC(=O)c1ccccc1F,1200 nM
5,COc1cc(-c2coc3c(C(=O)NCc4ccc(OC)c(OC)c4)cccc23)ccc1O,1220 nM
6,CC(Nc1nc(-c2ccccc2O)nc2ccccc12)c1ccccc1 (centres undefined),65.6 nM
7,COc1ccc(NC(=O)COC(=O)/C=C/C(=O)OCC(=O)Nc2ccc(OC)c(Cl)c2)cc1Cl,16600 nM
8,NS(=O)(=O)c1ccc(NC(=O)c2cccc3cc4ccccc4nc23)cc1,1320 nM
9,O=C(CN1C(=O)/C(=C\c2ccc(F)cc2)Oc2ccccc21)N1CCN(c2ccccn2)CC1,4740 nM
10,Cc1ccc(-c2cnc(C3CC3)o2)cc1S(=O)(=O)Nc1ccccc1,9070 nM
11,O=C(N/N=C\c1cn(-c2ccccc2)nc1-c1ccccc1)c1ccc(Br)o1,9570 nM
12,COCCOC(=O)c1[nH]c2c(c1C)C(=O)CC(c1cccs1)C2 (centres undefined),1380 nM
13,CC(CCc1ccccc1)NC(=O)c1ccc(NC(=O)c2ccccc2)cc1 (centres undefined),4540 nM
14,O=C(CCl)Nc1cc(S(=O)(=O)N2CCCCCC2)ccc1Cl,441 nM
15,Cn1c(=O)[nH]c(=O)c2c1nc(N(CCO)Cc1ccccc1)n2CCCc1ccccc1,800 nM
16,CS(=O)(=O)Nc1cccc(NC(=O)C2Cc3c(-c4ccccc4)ccnc3O2)c1 (centres undefined),2360 nM
17,COc1ccc(C(=O)/C=C\c2ccc(NC(=O)c3cccs3)cc2)cc1,2000 nM
18,COc1ccc(-c2nc(NCCCN(C)C)c3ccccc3n2)cc1,2490 nM
19,CCN(CC(=O)Nc1ccccc1-c1ccccc1)Cc1nc2ccccc2c(=O)[nH]1,1470 nM
20,COc1ccccc1N=CC1=C(O)CC(c2ccccc2)CC1=O (centres undefined),2740 nM
21,COc1cc2c(cc1OC)C(=O)N1[C@H]3c4ccccc4OC[C@@H]3[C@H](c3ccccc3)[C@]1(C)C(=O)N2,42.6 nM
22,CCOC(=O)c1[nH]c(C)c(C(=O)Nc2ccc(C)c(F)c2)c1C,5420 nM

row,Structure (SMILES),AC26
1,COc1ccc(C2=NOC(C(=O)NCc3cccs3)C2)cc1 (centres undefined),1010 nM
2,COc1ccc2c(c1)[C@H]1[C@H](CO2)[C@H](c2ccccc2)[C@]2(C)C(=O)Nc3cc(F)c(F)cc3C(=O)N12,544 nM
3,CCN(CC)S(=O)(=O)c1cc(NC(=O)Cn2ncc(Cl)c(Cl)c2=O)ccc1C,1030 nM
4,CCN(CC)CCCNc1nc2cc(OC)c(OC)cc2c2nc(-c3ccccc3)nn12,811 nM
5,O=C(NCCCn1ccnc1)c1cc(-c2cccs2)on1,3430 nM
6,Cc1ccc2c(c1)[C@H]1[C@H](CO2)[C@H](c2ccccc2)[C@]2(C)C(=O)Nc3ccc(Br)cc3C(=O)N12,1430 nM
7,CN(C)CCNC(=O)c1cccc2nc3c(ccc4ccccc43)nc12,719 nM
8,O=C(C=Cc1ccccn1)c1ccccc1O,1250 nM
9,CC(=O)c1cccc(-c2ccnc3c2CC(C(=O)NCc2ccccc2)O3)c1 (centres undefined),657 nM
10,Cc1nnc2c(NC(C)C)nc3ccccc3n12,4090 nM
11,Cn1nc(-c2ccccc2)c(CSc2ccccc2Cl)c1Cl,6120 nM
12,Nc1sc(-c2ccccc2)cc1-c1n[nH]c(=S)n1C1CCCCC1,10700 nM
13,CN(C)CCCN1C(=O)c2cccc3c(Br)ccc(c23)C1=O,871 nM
14,CC1(C(=O)NCc2ccco2)Cc2c(-c3cccc(C(F)(F)F)c3)ccnc2O1 (centres undefined),7710 nM
15,CCOC(=O)c1[nH]c2c(c1-c1ccccc1)C(=O)CC(c1ccccc1)C2 (centres undefined),1480 nM
16,CC1CN(c2nc(-c3ccccc3)nnc2-c2ccccc2)CC(C)O1 (centres undefined),368 nM
17,COc1cc(C(=O)c2cocc2C(=O)c2ccc3c(c2)OCO3)cc(OC)c1OC,111 nM
18,CCCC(=O)Nc1nc2ccc(NC(=O)c3c(F)c(F)c(OC)c(F)c3F)cc2s1,974 nM
19,CCOc1ncccc1C(=O)Nc1cc2c(cc1Br)OCCO2,7780 nM
20,NC(=O)c1cccc(Nc2nc(C(N)CCc3ccccc3)cs2)n1 (centres undefined),8640 nM
21,Cn1c(=O)n(C)c2cc(S(=O)(=O)N3CCCc4ccccc43)ccc21,3550 nM
22,C[C@@]12C(=O)Nc3ccc(F)cc3C(=O)N1[C@H]1c3cc(Cl)ccc3OC[C@@H]1[C@@H]2c1ccccc1,1070 nM

row,Structure (SMILES),AC26
1,COC(=O)c1ccccc1NC(=O)Cn1c(-c2nonc2N)nc2ccccc21,120 nM
2,CN(C)S(=O)(=O)c1ccc(N2CCCC2)c(C(=O)Nc2nc(-c3ccc(F)cc3)cs2)c1,1550 nM
3,COc1ccc(Cl)cc1S(=O)(=O)Nc1ccc2c(c1)n(C)c(=O)n2C,1470 nM
4,NC(=O)CC(NC(=O)Cc1ccc(Br)cc1)c1ccc(NC2CCC2)c([N+](=O)[O-])c1 (centres undefined),2760 nM
5,COc1cc2c(cc1OC)C(c1cccs1)N(C(=O)c1cccnc1)CC2 (centres undefined),806 nM
6,COc1cccc(-c2nc(N3CCN(C)CC3)c3ccccc3n2)c1O,3610 nM
7,Cc1c(Cl)cccc1N=Cc1ccc([N+](=O)[O-])s1,1870 nM
8,COc1cc(-c2cc(OC)c(O)c(OC)c2)cc(OC)c1O,3600 nM
9,CCOC(=O)C(C)Oc1cccc2c(=O)n(CC(=O)NCc3ccco3)ccc12 (centres undefined),1380 nM
10,CSC1=NC(C(Cl)(Cl)Cl)N=C(c2ccccc2)N1 (centres undefined),1470 nM
11,CCOc1ccccc1C(=O)Nc1ccsc1C(=O)OC,1300 nM
12,O=C(Nc1ncccc1O)c1ccc(C(=O)c2ccccc2)cc1,5180 nM
13,Cc1ccc(N2CCN(C3=NC(=O)/C(=C\c4cn[nH]c4-c4ccccc4)S3)CC2)cc1,1350 nM
14,COc1ccc(-c2oc3cc(O)c(OC)c(O)c3c(=O)c2OC)cc1O,246 nM
15,O=C1N[C@H]2CC=C[C@H]2N(Cc2cccs2)c2ccccc21,895 nM
16,CN(C)c1ccc(C(C[N+](=O)[O-])c2c(N)n(C)c(=O)n(C)c2=O)c(F)c1C#N (centres undefined),3300 nM
17,Cc1ccc2c(c1)cc(CN(C(=O)N1CCOCC1)C1CCCC1)c1nnnn12,4120 nM
18,Cc1cc(NC(=O)CSc2nc3c(C)cccc3cc2C#N)no1,3320 nM
19,CCN(CC)S(=O)(=O)c1cccc(C(=O)OCC(=O)Nc2ccc3c(c2)c2ccccc2n3CC)c1,4110 nM
20,COc1ccc2c(c1)C(=O)N1[C@H]3c4cc(Cl)ccc4OC[C@@H]3[C@H](c3ccccc3)[C@]1(C)C(=O)N2,1010 nM
21,C=C(C)Cn1c2ccc(NC(=O)CCc3cccc(Cl)c3)cc2c(=O)n1C,7490 nM
22,CC[C@H](C)[C@@H](NC(=O)O[C@@H]1C(=O)c2cc(OC)ccc2O[C@H]1c1ccc(OC)c(Br)c1)C(=O)OC,335 nM

row,Structure (SMILES),AC26
1,Cc1cc(NC(=O)CN2C(=O)NC3(CCCCCC3)C2=O)ccc1Br,1570 nM
2,Cc1cccc(NC(=O)Nc2cccc(C#N)c2)n1,4060 nM
3,COc1ccc(C(=O)c2ccc(N(C)C)cc2)c2ccccc12,2000 nM
4,COc1ccc(OC(=O)N2C/C(=C/c3ccccc3)C(=O)/C(=C\c3ccccc3)C2)cc1,299 nM
5,CCc1ccc(C(=O)Nc2ccc3c(c2)n(C)c(=O)n3C)cc1,6220 nM
6,Cc1ccc(C(=O)Nc2ccc(NC(=O)c3cccs3)cc2)c(C)c1,8550 nM
7,COc1ccc(/C=C/C(=O)c2ccc(Cl)s2)cc1O,4730 nM
8,CC1CCC2(CC1)NC(=O)N(CC(=O)Nc1ccc3c(c1)CCC3)C2=O (centres undefined),826 nM
9,COc1ccc(OC)c(Nc2nc(-c3c(C)nc4ncccn34)cs2)c1,2730 nM
10,COc1ccc2c(c1)C(=O)N1[C@H]3c4cc(OC)ccc4OC[C@@H]3[C@H](c3ccccc3)[C@]1(C)C(=O)N2,197 nM
11,CC(=O)c1ccc(N2CCN(C(=O)c3cccc(Oc4ccccc4)c3)CC2)cc1,1140 nM
12,O=C(CC1Sc2ccccc2NC1=O)NNc1ccc(Cl)c(Cl)c1 (centres undefined),2840 nM
13,Cc1ccc(NC(=O)c2ccc(Cl)cc2[N+](=O)[O-])nc1,1080 nM
14,Cc1ccc(C)c(NC(=O)Cn2nnc(C(=O)NCc3ccco3)c2N)c1,9800 nM
15,Cc1cnc(NC(=O)c2cc(S(=O)(=O)N(C)C)ccc2N2CCCC2)s1,10.7 nM
16,O=C(Nc1ccccc1)N(CCN1CCOCC1)Cc1ccccc1F,1360 nM
17,Cc1nc2c3cc(F)ccc3n(Cc3ccc(F)cc3)c2s1,11500 nM
18,O=C(Nc1ccc(S(=O)(=O)N2CCOCC2)cc1)c1cc(-c2cc(Cl)ccc2O)n[nH]1,1260 nM
19,CN(C)CCN1C(=O)c2cccc3cc([N+](=O)[O-])cc(c23)C1=O,73.5 nM
20,CC[C@H](C)[C@H](NC(=O)c1ccc(Cl)cc1)C(=O)OCC(=O)c1ccc2c(c1)NC(=O)CO2,6470 nM
21,Cc1ccc2nc(-c3ccncc3)cc(C(=O)Nc3ccncc3)c2c1,3050 nM
